Measured values published in patent US11098029B2, “5-alkyl pyrrolidine orexin receptor agonists” (Merck Sharp & Dohme Corp., priority 2019, dated 2021).

Target: human OX2R (Homo sapiens (Human), UniProt O43614)
Experiment: IPOne (IP-One, Cisbio) orexin receptor agonist assay in CHO cells expressing human OX2R
Settings: for Emax (%) / Emax: hOX2R_IP, percentage of mean max effect of a reference compound at 1 uM (100% activity vs Orexin A); for Emax: CHO
Protocol: Both the OX1R and/or OX2R G-coupled protein receptors (GPCRs) couple through the Gaq signaling pathway, which ultimately promotes calcium mobilization via inositol triphosphate (IP3) production.
In a typical experiment, the OX1 and OX2 receptor agonist activity is determined in accordance with the following general experimental method. Chinese hamster ovary (CHO) cells expressing human OX1R and/or the human OX2R were grown in Iscove's modified DMEM containing glutaMAX®, 1% G418, 100 U/mL penicillin, 100 μg/mL streptomycin and 10% heat-inactivated qualified fetal bovine serum (FBS). […] During this incubation, IP-one detection reagents were prepared (38:1:1 lysis buffer:D2:AB-cryptate reagents).
For each compound, data were fit to a four parameter logistic fit (ActivityBase software) and the EC50 was reported as the inflection point of the resulting curve.

human OX2R, sequence (O43614 whole entry): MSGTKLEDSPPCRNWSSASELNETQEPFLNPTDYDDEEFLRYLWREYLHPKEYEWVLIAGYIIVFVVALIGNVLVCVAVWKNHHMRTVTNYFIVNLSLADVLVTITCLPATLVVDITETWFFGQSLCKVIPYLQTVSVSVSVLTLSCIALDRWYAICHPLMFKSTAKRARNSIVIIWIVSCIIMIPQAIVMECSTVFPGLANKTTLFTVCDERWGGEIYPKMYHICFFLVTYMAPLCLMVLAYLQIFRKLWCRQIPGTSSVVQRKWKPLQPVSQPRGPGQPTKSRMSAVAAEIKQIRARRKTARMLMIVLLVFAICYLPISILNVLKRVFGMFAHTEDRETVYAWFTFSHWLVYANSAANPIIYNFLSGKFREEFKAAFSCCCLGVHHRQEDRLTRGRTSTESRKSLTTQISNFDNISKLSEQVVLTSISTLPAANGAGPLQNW

| Structure (SMILES) | Emax (%) | Emax [%] | IC50 [nM] |
| --- | --- | --- | --- |
| COC(=O)N1[C@H](C)C[C@H](NS(=O)(=O)N(C)C)[C@@H]1CO[C@H]1CC[C@@H](c2ccccc2)CC1 [Example 19, methyl (2R,3S,5R)-3-((N,N-dimethylsulfamoyl)amino)-5-methyl-2-((((1s,4S)-4-phenylcyclohexyl)-oxy)methyl)pyrrolidine-1-carboxylate] | 100 |  |  |
| COC(=O)N1[C@H](C)C[C@H](NS(C)(=O)=O)[C@@H]1CO[C@H]1CC[C@@H](c2cc(F)ccc2F)CC1 [Example 20, methyl (2R,3S,5R)-2-((((1r,4R)-4-(2,5-difluorophenyl)cyclo-hexyl)oxy)methyl)-5-methyl-3-(methylsulfona-mido)pyrrolidine-1-carboxylate] |  | 102 |  |
| COC(=O)N1[C@H](C)C[C@H](NS(C)(=O)=O)[C@@H]1CO[C@H]1CC[C@@H](c2c(F)ccc(F)c2F)CC1 [Example 28, methyl (2R,3S,5R)-5-methyl-3-(methylsulfonamido)-2-((((1r,4R)-4-(2,3,6-trifluorophenyl)-cyclohexyl)oxy)methyl)pyrro-lidine-1-carboxylate] |  | 102 |  |
| COC(=O)N1[C@H](C)C[C@H](NS(=O)(=O)CF)[C@@H]1CO[C@H]1CC[C@@H](c2ccccc2)CC1 [Example 29, methyl (2R,3S,5R)-3-((fluoromethyl)sulfonamido)-5-methyl-2-((((1r,4R)-4-phenylcyclohexyl)oxy)meth-yl)pyrrolidine-1-carboxylate] |  | 102 |  |
| COC(=O)N1[C@H](C)C[C@H](NS(=O)(=O)N(C)C)[C@@H]1CO[C@@H]1CC[C@H](c2ccccc2)CC1F (stereo partly drawn) [Example 30, methyl (2R,3S,5R)-3-((N,N-dimethylsulfamoyl)amino)-2-((((1R,4S)-2-fluoro-4-phenylcyclohexyl)oxy)methyl)-5-methylpyrrolidine-1-carboxylate] |  | 100 |  |
| COC(=O)N1[C@H](C)C[C@H](NS(=O)(=O)N(C)C)[C@@H]1CO[C@H]1CC[C@@H](c2cc(F)cc(F)c2)CC1 [Example 32, methyl (2R,3S,5R)-2-((((1s,4S)-4-(3,5-difluorophenyl)cyclohexyl)oxy)methyl)-3-((N,N-dimethylsulfamoyl)amino)-5-methylpyrrolidine-1-carboxylate] |  | 101 |  |
| COC(=O)N1[C@H](C)C[C@H](NS(C)(=O)=O)[C@@H]1COC1CCC(c2ccccc2)CC1C (stereo partly drawn) [Example 34, methyl (2R,3S,5R)-5-methyl-2-(((2-methyl-4-phenylcyclohexyl)oxy)methyl)-3-(methylsulfonamido)pyrrolidine-1-carboxylate] |  | 99 | 37.5 |
| COC(=O)N1[C@H](C)C[C@H](NS(=O)(=O)N(C)C)[C@@H]1CO[C@@H]1CC=C(c2cccc(F)c2)CC1 [Example 35, methyl (2R,3S,5R)-3-((N,N-dimethylsulfamoyl)amino)-2-((((S)-3′-fluoro-2,3,4,5-tetrahydro-[1,1′-biphenyl]-4-yl)oxy)methyl)-5-methylpyrrolidine-1-carboxylate] |  | 102 | 12.5 |
| COC(=O)N1[C@H](C)C[C@H](NS(=O)(=O)N(C)C)[C@@H]1CO[C@H]1CCC(c2cccc(F)c2)C(O)C1 (stereo partly drawn) [Example 36, methyl (2R,3S,5R)-3-((N,N-dimethylsulfamoyl)amino)-2-((((1S)-4-(3-fluorophenyl)-3-hydroxycyclohexyl)oxy)methyl)-5-methylpyrrolidine-1-carboxylate] |  | 99 | 0.76 |
| CNS(=O)(=O)N[C@H]1C[C@@H](C)N(C(=O)OC(C)C)[C@H]1COC1CCN(c2ncccn2)CC1 [Example 38, isopropyl (2R,3S,5R)-5-methyl-3-((N-methylsulfamoyl)amino)-2-(((1-(pyrimidin-2-yl)piperidin-4-yl)oxy)methyl)pyrrolidine-1-carboxylate] |  | 100 | 7.07 |
| CC(C)OC(=O)N1[C@H](C)C[C@H](NS(=O)(=O)N(C)C)[C@@H]1COC1CCN(c2ncc(F)cn2)CC1 [Example 39, isopropyl (2R,3S,5R)-3-((N,N-dimethylsulfamoyl)amino)-2-(((1-(5-fluoropyrimidin-2-yl)piperidin-4-yl)oxy)methyl)-5-methylpyrrolidine-1-carboxylate] |  | 101 |  |
| CCC1CC(NS(C)(=O)=O)C(CO[C@H]2CC[C@@H](c3ccccc3)CC2)N1C(=O)OC (stereo partly drawn) [Example 40, methyl (CIS)-5-ethyl-3-(methylsulfonamido)-2-((((CIS)-4-phenylcyclohexyl)oxy)-methyl)pyrrolidine-1-carboxylate] | 100 |  |  |
| CC[C@@H]1C[C@H](NS(C)(=O)=O)[C@H](CO[C@H]2CC[C@@H](c3ccccc3)CC2)N1C(=O)OC [Example 46, methyl (2R,3S,5R)-5-ethyl-3-(methylsulfonamido)-2-((((CIS)-4-phenylcyclohexyl)oxy)methyl)pyrrolidine-1-carboxylate] |  | 101 |  |
| COC(=O)N1C(CCO)CC(NS(C)(=O)=O)C1CO[C@H]1CC[C@@H](c2ccccc2)CC1 (stereo partly drawn) [Example 49, methyl (CIS)-5-(2-hydroxyethyl)-3-(methylsulfonamido)-2-((((CIS)-4-phenylcyclohexyl)oxy)methyl)pyrrolidine-1-carboxylate] | 102 |  |  |
| COC(=O)N1C(CO)CC(NS(C)(=O)=O)C1CO[C@H]1CC[C@@H](c2ccccc2)CC1 (stereo partly drawn) [Example 50, methyl (CIS)-5-(hydroxymethyl)-3-(methylsulfonamido)-2-((((CIS)-4-phenylcyclohexyl)oxy)-methyl)pyrrolidine-1-carboxylate] | 101 |  |  |
| COC[C@@H]1C[C@H](NS(=O)(=O)N(C)C)[C@H](CO[C@H]2CC[C@@H](c3cccc(F)c3)CC2)N1C(=O)OC [Example 51, methyl (2R,3S,5S)-3-((N,N-dimethylsulfamoyl)amino)-2-((((CIS)-4-(3-fluorophenyl)cyclohexyl)-oxy)methyl)-5-(methoxymethyl)pyrrolidine-1-carboxylate] |  | 101 |  |
| COC(=O)N1[C@H](CC#N)C[C@H](NS(=O)(=O)N(C)C)[C@@H]1CO[C@H]1CC[C@@H](c2cccc(F)c2)CC1 [Example 52, methyl (2R,3S,5S)-5-(cyanomethyl)-3-((N,N-dimethylsulfamoyl)amino)-2-((((CIS)-4-(3-fluorophenyl)cyclohexyl)oxy)methyl)pyrrolidine-1-carboxylate] |  | 102 | 7.8 |

Continued, values first:

| Emax (%) | Emax [%] | IC50 [nM] | Structure (SMILES) |
| --- | --- | --- | --- |
|  | 101 |  | COC(=O)N1[C@H](C)C[C@H](NS(=O)(=O)N(C)C)[C@@H]1CO[C@H]1CC[C@@H](c2cc(F)ccc2F)CC1 [Example 21, methyl (2R,3S,5R)-2-((((1R,4R)-4-(2,5-difluorophenyl)cyclohexyl)oxy)methyl)-3-((N,N-dimethylsulfa-moyl)amino)-5-methylpyrrolidine-1-carboxylate] |
|  | 100 |  | C[C@@H]1C[C@H](NS(=O)(=O)N(C)C)[C@H](CO[C@H]2CC[C@@H](c3cc(F)ccc3F)CC2)N1C(=O)OCC(F)F [Example 22, 2,2-difluoroethyl (2R,3S,5R)-2-((((1r,4R)-4-(2,5-difluorophenyl)-cyclohexyl)oxy)methyl)-3-((N,N-dimethylsulfamoyl)amino)-5-methylpyrrolidine-1-carboxylate] |
|  | 97 |  | COC(=O)N1[C@H](C)C[C@H](NS(=O)(=O)N(C)C)[C@@H]1CO[C@H]1CC[C@@H](c2ccccc2F)CC1 [Example 23, methyl (2R,3S,5R)-3-((N,N-dimethylsulfamoyl)amino)-2-((((1s,4S)-4-(2-fluorophenyl)cyclohexyl)oxy)methyl-5-methylpyrrolidine-1-carboxylate] |
| 102 | 98 |  | COC(=O)N1[C@H](C)C[C@H](NS(=O)(=O)CF)[C@@H]1CO[C@H]1CC[C@@H](c2cccc(F)c2)CC1 [Example 26, methyl (2R,3S,5R)-3-((fluoromethyl)sulfonamido)-2-((((1s,4S)-4-(3-fluorophenyl)cyclohexyl)oxy)methyl)-5-methylpyrrolidine-1-carboxylate] |
|  | 100 |  | COC(=O)N1[C@H](C)C[C@H](NS(C)(=O)=O)[C@@H]1CO[C@H]1CC[C@@H](c2ccccc2C(F)(F)F)CC1 [Example 27, methyl (2R,3S,5R)-5-methyl-3-(methylsulfonamido)-2-((((1r,4R)-4-(2-(trifluorometh-yl)phenyl)cyclohexyl)oxy)methyl)pyrrolidine-1-carboxylate] |
|  | 100 |  | COC(=O)N1[C@H](C)C[C@H](NS(=O)(=O)N(C)C)[C@@H]1CO[C@@H]1CC[C@H](c2cccc(F)c2)CC1F (stereo partly drawn) [Example 31, methyl (2R,3S,5R)-3-((N,N-dimethylsulfamoyl)amino)-2-((((1R,4S)-2-fluoro-4-(3-fluorophenyl)cyclohexyl)oxy)methyl)-5-methylpyrrolidine-1-carboxylate] |
|  | 92 | 2150 | COC(=O)N1[C@H](C)C[C@H](NS(C)(=O)=O)[C@@H]1COC1CCC(c2ccccc2)CC1OC (stereo partly drawn) [Example 33, methyl (2R,3S,5R)-2-(((2-methoxy-4-phenylcyclohexyl)oxy)methyl)-5-methyl-3-(methylsulfonamido)pyrrolidine-1-carboxylate] |
|  | 101 |  | COC(=O)N1C(C2CC2)C[C@H](NS(C)(=O)=O)C1COC1CCC(c2ccccc2)CC1 (stereo partly drawn) [Example 44, methyl (CIS)-5-cyclopropyl-3-(methylsulfonamido)-2-((((CIS)-4-phenylcyclohexyl)oxy)methyl)pyrrolidine-1-carboxylate] |
|  | 62 |  | CC[C@H]1C[C@@H](NS(C)(=O)=O)[C@@H](CO[C@H]2CC[C@@H](c3ccccc3)CC2)N1C(=O)OC [Example 45, methyl (2S,3R,5S)-5-ethyl-3-(methylsulfonamido)-2-((((CIS)-4-phenylcyclohexyl)oxy)methyl)-pyrrolidine-1-carboxylate] |
| 102 |  |  | COC(=O)N1[C@H](C)C[C@H](NS(=O)(=O)N(C)CC#N)[C@@H]1CO[C@H]1CC[C@@H](c2cccc(F)c2)CC1 [Example 53, Methyl (2R,3S,5R)-3-((N-(cyanomethyl)-N-methylsulfamoyl)amino)-2-((((1s,4S)-4-(3-fluorophenyl)cyclohexyl)oxy)methyl)-5-methylpyrrolidine-1-carboxylate] |
